Test results as given in patent publication US20250213581A1, “COMBINATION THERAPY OF A PI3K INHIBITOR AND KRAS INHIBITOR AND METHODS OF USE THEREOF” (Totus Medicines Inc., priority 2022, published 2025).

Experiments:
[1] = test system: NCI-H358 (Lung) cell lines; assay: Cell proliferation assay and synergy analysis, Compound I with Adagrasib; conditions: Homo sapiens, NCI-H358, 72 h, read-out: Ave of Inhibition (%)
Text: (§4) The cell lines tested included: UM-UC-3 (bladder), KYSE-410 (HN/Esophagus), SW1463 (rectum), Calu-1 (Lung), NCI-H358 (Lung), SW837 (Rectum), SW756 (Cervix), NCI-H2122 (Lung), NCI-H1373 (Lung), NCI-H1792 (Lung), NCI-H23 (Lung), MIA PaCa-2 (Pancreas), and HCC44 (Lung).
(§5) Cells were recovered and maintained in appropriate culture media. The cells were harvested respectively during the logarithmic growth period. The cells were then resuspended and counted using a Vi cell counter (The cell viability was measured by trypan blue exclusion assay). The cells were then diluted and 80 μL of the cell suspensions were added to 96-well plates according to plate map with final cell density. Two duplicate plates were set up. One is for day 0 reading (T0) and the other was cultured in the incubator for reading at the end point. The incubated plates were incubated overnight in humidified incubator at 37° C. with 5% CO2.
(§6) At day 0, 20 μL of culture medium was added to each well for T0 reading. 10 μL of culture medium was added to each well for day 0 (T0) reading. Then, 50 μl of CellTiter-Glo® Reagent was added to each well. The contents were then mixed for 2 minutes on an orbital shaker to facilitate cell lysis. The plates were then allowed to incubate at room temperature for 10 minutes to stabilize luminescent signal. Luminescence was then recorded using an EnVision Multi Label Reader. […] The screening plates were then placed back into the incubator for the appropriate treatment time (3 days).
(§7) For the endpoint CTG reading, 50 μL of CellTiter-Glo® Reagent was added to each well. The contents were then mixed for 2 minutes on an orbital shaker to facilitate cell lysis. The plate was allowed to incubate at room temperature for 10 minutes to stabilize luminescent signal. Luminescence was then recorded using an EnVision Multi Label Reader. The surviving rate (%)=(LumTest article−LumMedium control)/(LumNone treated−LumMedium control)×100%.
(§8) A score higher than 5 indicates synergy, and a score less than −5 indicates antagonism.

[2] = test system: SW1463 (rectum) cell lines; assay: as above; conditions: Homo sapiens, SW1463, 72 h, read-out: Ave Inhibition (%)
Text: as §4, §5, §6, §7, §8

[3] = test system: KYSE-410 (HN/Esophagus) cell lines; assay: as above; conditions: Homo sapiens, KYSE-410, 72 h, read-out: Ave inhibition (%)
Text: as §4, §5, §6, §7, §8

Calu-1 (Lung) cell lines = assay: as above; conditions: Homo sapiens, Calu-1, 72 h, read-out: Ave of Inhibition (%)
Text: as §4, §5, §6, §7, §8

MIA PaCa-2 (Pancreas) = assay: Cell proliferation assay (CellTiter-Glo, 3 days), single agent; assay type: cell-based; conditions: Homo sapiens
Method: (§1) Two duplicate plates were set up.
(§2) At day 0, 10 μL culture medium to each well for T0 reading. […] Compound I was diluted and 10 μL of each 10× compound I from working solutions for a concentration ranging from 10 μM to about 0.005 μM. Cisplatin was diluted to about 3.33 mM to about 150 nM.
(§3) IC50's were determined for each cell line.

HCC44 (Lung) = assay: as above; assay type: cell-based; conditions: Homo sapiens, HCC44, read-out: Average Inhibition (%) (N = 3)
Method: as §1, §2, §3

NCI-H2122 (Lung) = assay: as above; assay type: cell-based; conditions: Homo sapiens, NCI-H2122, read-out: Average Inhibition (%) (N = 3)
Method: as §1, §2, §3

SW837 (Rectum) = assay: as above; assay type: cell-based; conditions: Homo sapiens, SW837, 72 h, read-out: Absolute IC50 (μM)
Method: as §1, §2, §3

[4] = test system: SW756 (Cervix) cell lines; assay: Cell proliferation assay and synergy analysis, Compound I with Adagrasib; conditions: Homo sapiens, SW756, 72 h, read-out: Ave Inhibition (%)
Text: as §4, §5, §6, §7, §8

[5] = test system: UM-UC-3 (bladder) cell lines; assay: as above; conditions: Homo sapiens, UMUC3, 72 h, read-out: Ave Inhibition rate (%)
Text: as §4, §5, §6, §7, §8

[6] = MIA PaCa-2, read-out: Average Inhibition (%) (N = 3)

Question: What does the source list for `C=CC(=O)NCC(=O)N1CCN(Cc2cc3c(N4CCOCC4)nc(-c4cnc(NC(=O)OC)cc4C(F)(F)F)nn3c2)CC1` [Compound I, methyl (5-(6-((4-(acryloylglycyl)piperazin-1-yl)methyl)-4-morpholinopyrrolo[2,1-f][1,2,4]triazin-2-yl)-4-(trifluoromethyl)pyridin-2-yl)carbamate]?
Answer: inhibition at 0.0046 µM [1]: 0.76%; inhibition at 0.0137 µM [1]: 4.1%; inhibition at 0.0412 µM [1]: 10.8%; inhibition at 0.1235 µM [1]: 17.1%; inhibition at 0.3704 µM [1]: 25%; inhibition at 1.1111 µM [1]: 38.9%; inhibition at 3.3333 µM [1]: 50.4%; inhibition at 10 µM [1]: 61%; inhibition at 0.0046 µM [2]: 4.57%; inhibition at 0.0137 µM [2]: 2.64%; inhibition at 0.0412 µM [2]: 6.01%; inhibition at 0.1235 µM [2]: 15.7%; inhibition at 0.3704 µM [2]: 21.8%; inhibition at 1.1111 µM [2]: 29.5%; inhibition at 3.3333 µM [2]: 40.4%; inhibition at 10 µM [2]: 48.4%; inhibition at 0.0046 µM [3]: -1.36%; inhibition at 0.0137 µM [3]: 3.14%; inhibition at 0.0412 µM [3]: 9.47%; inhibition at 0.1235 µM [3]: 17.1%; inhibition at 0.3704 µM [3]: 29.4%; inhibition at 1.1111 µM [3]: 50.5%; inhibition at 3.3333 µM [3]: 65.8%; inhibition at 10 µM [3]: 71.3%; inhibition at 0.0046 µM (Calu-1 (Lung) cell lines): -8.39%; inhibition at 0.0137 µM (Calu-1 (Lung) cell lines): -5.3%; inhibition at 0.0412 µM (Calu-1 (Lung) cell lines): -3.3%; inhibition at 0.1235 µM (Calu-1 (Lung) cell lines): -0.27%; inhibition at 0.3704 µM (Calu-1 (Lung) cell lines): 3.9%; inhibition at 1.1111 µM (Calu-1 (Lung) cell lines): 31%; inhibition at 3.3333 µM (Calu-1 (Lung) cell lines): 11.6%; inhibition at 10 µM (Calu-1 (Lung) cell lines): 22.6%; IC50 (MIA PaCa-2 (Pancreas); MIA PaCa-2, 72 h, read-out: Absolute IC50 (μM)): > 10 µM; inhibition at 0.0046 µM (MIA PaCa-2 (Pancreas); [6]): -5.76%; inhibition at 0.0137 µM (MIA PaCa-2 (Pancreas); [6]): -10.3%; inhibition at 0.0412 µM (MIA PaCa-2 (Pancreas); [6]): -8.58%; inhibition at 0.1235 µM (MIA PaCa-2 (Pancreas); [6]): -9.5%; inhibition at 0.3704 µM (MIA PaCa-2 (Pancreas); [6]): -5.32%; inhibition at 1.1111 µM (MIA PaCa-2 (Pancreas); [6]): 1.46%; inhibition at 3.3333 µM (MIA PaCa-2 (Pancreas); [6]): 13.9%; inhibition at 10 µM (MIA PaCa-2 (Pancreas); [6]): 30.6%; inhibition at 0.0046 µM (HCC44 (Lung)): -3.82%; inhibition at 0.0137 µM (HCC44 (Lung)): -4.27%; inhibition at 0.0412 µM (HCC44 (Lung)): -1.38%; inhibition at 0.1235 µM (HCC44 (Lung)): 1.74%; inhibition at 0.3704 µM (HCC44 (Lung)): 10.1%; inhibition at 1.1111 µM (HCC44 (Lung)): 19.7%; inhibition at 3.3333 µM (HCC44 (Lung)): 33.1%; inhibition at 10 µM (HCC44 (Lung)): 43.7%; inhibition at 0.0046 µM (NCI-H2122 (Lung)): -2.13%; inhibition at 0.0137 µM (NCI-H2122 (Lung)): 2.34%; inhibition at 0.0412 µM (NCI-H2122 (Lung)): 13.6%; inhibition at 0.1235 µM (NCI-H2122 (Lung)): 24%; inhibition at 0.3704 µM (NCI-H2122 (Lung)): 36.5%; inhibition at 1.1111 µM (NCI-H2122 (Lung)): 45.6%; inhibition at 3.3333 µM (NCI-H2122 (Lung)): 52.5%; inhibition at 10 µM (NCI-H2122 (Lung)): 63.2%; IC50 (SW837 (Rectum)): > 10 µM; inhibition at 0.0046 µM [4]: -1.03%; inhibition at 0.0137 µM [4]: -0.86%; inhibition at 0.0412 µM [4]: 1.55%; inhibition at 0.1235 µM [4]: 4.83%; inhibition at 0.3704 µM [4]: 8.26%; inhibition at 1.1111 µM [4]: 14.3%; inhibition at 3.3333 µM [4]: 21.6%; inhibition at 10 µM [4]: 34.6%; inhibition at 0.0046 µM [5]: -5.05%; inhibition at 0.0137 µM [5]: -5.07%; inhibition at 0.0412 µM [5]: -7.94%; inhibition at 0.1235 µM [5]: -4.04%; inhibition at 0.3704 µM [5]: 0.18%; inhibition at 1.1111 µM [5]: 9.37%; inhibition at 3.3333 µM [5]: 27.4%; inhibition at 10 µM [5]: 44.8%
